Source: patent US8519007B2, “Use certain diterpene compounds in the treatment of androgen receptor-associated diseases” (Academia Sinica, priority 2008, dated 2013)

Assays:
androgen receptor = target: T1, androgen receptor (Homo sapiens, UniProt P10275); test: PSA promoter luciferase reporter assay in 103E cells (AR transcriptional activity); settings: for inhibition of AR activity: 50 μM, 20 h; for IC50: read-out: IC50 of AR activity, 20 h, luciferase
T1 sequence (P10275 with tags, fused parts or gaps DUP590-628/H875Y): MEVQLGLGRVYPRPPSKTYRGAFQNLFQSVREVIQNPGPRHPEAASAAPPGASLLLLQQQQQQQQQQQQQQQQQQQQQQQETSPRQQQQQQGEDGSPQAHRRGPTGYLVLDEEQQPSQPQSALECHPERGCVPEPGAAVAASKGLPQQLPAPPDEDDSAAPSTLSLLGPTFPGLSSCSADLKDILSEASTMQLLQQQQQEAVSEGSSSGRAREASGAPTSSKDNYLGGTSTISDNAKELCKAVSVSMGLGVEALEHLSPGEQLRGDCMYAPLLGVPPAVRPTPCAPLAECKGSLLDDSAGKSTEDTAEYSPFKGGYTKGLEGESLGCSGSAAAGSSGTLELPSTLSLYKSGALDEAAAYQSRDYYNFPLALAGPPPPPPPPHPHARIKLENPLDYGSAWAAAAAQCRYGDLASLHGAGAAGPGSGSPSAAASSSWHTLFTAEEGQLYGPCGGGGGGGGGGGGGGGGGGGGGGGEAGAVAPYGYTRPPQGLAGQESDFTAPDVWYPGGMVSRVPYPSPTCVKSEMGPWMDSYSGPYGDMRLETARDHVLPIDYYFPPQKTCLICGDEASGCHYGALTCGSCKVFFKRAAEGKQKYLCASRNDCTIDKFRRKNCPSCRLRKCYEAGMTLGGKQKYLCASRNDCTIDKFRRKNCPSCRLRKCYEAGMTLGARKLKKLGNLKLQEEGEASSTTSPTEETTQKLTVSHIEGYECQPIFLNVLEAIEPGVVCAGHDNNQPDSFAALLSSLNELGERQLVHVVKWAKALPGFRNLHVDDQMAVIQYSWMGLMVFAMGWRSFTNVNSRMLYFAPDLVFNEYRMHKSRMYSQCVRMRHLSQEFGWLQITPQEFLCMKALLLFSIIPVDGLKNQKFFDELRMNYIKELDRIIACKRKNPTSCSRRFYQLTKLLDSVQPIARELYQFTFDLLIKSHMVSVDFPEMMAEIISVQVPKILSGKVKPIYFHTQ
Description: PC-3 and NIH-3T3 were cultured in DMEM (Hyclone) supplemented with 10% FBS. Cultures were maintained in a humidified incubator at 37° C. in 5% CO2/air.
Cells were treated with various compounds for a period of 20 h and luciferase activity was measured using a luciferase reporter gene assay system (Promega).

LNCaP cells = test: Cell cycle distribution by propidium iodide flow cytometry; type: cell-based, human; settings: 48 h
Description: (§1) The cell cycle of treated cells was examined by flow cytometry after cellular staining with propidium iodide. 5×10^5 cells were seeded into 6-well multidishes with 10% FBS culture medium for 48 h. […] Cells were trypsinized thereafter, washed twice with cold PBS, and centrifuged. The pellet was suspended in cold PBS and 1 mL of 70% ethanol at 4° C. overnight, washed twice with cold PBS, and digested with RNase (100 μg/mL final concentration) and stained with propidium iodide (10 μg/mL final concentration) for 30 min and analyzed by flow cytometry (EPICS XL-MCL, Beckman Coulter, Inc., Fullerton, Calif.).

22Rv1 cells = test: as above; type: cell-based, human; settings: 48 h
Description: as §1

PC-3 cells = test: as above; type: cell-based, human; settings: 48 h
Description: as §1

Compound: CC(C)c1cc2c(cc1O)[C@@]1(C)CCCC(C)(C)[C@H]1OC2=O [Compound 5]
- inhibition of AR activity (androgen receptor): less than 20%
- Inhibitionmax (%) of AR activity (androgen receptor; maximal inhibition at 50 μM): 19 ± 6% (50 μM)

Compound: CC(C)C1=C[C@]2(O)CC[C@H]3C(C)(C)CCC[C@]3(C)C2=CC1=O [Compound 6]
- inhibition of AR activity (androgen receptor): approximately 70%
- Inhibitionmax (%) of AR activity (androgen receptor; maximal inhibition at 50 μM): 68 ± 6% (50 μM)
- IC50 (androgen receptor): 17.6 µM

Compound: COc1c(C(C)C)cc2c(c1O)[C@@]1(C)CCCC(C)(C)[C@@H]1CC2=O [Compound 1]
- inhibition of AR activity (androgen receptor): approximately 70%
- Inhibitionmax (%) of AR activity (androgen receptor; maximal inhibition at 50 μM): 77 ± 2% (50 μM)
- IC50 (androgen receptor): 8.62 µM

Compound: CC(C)c1cc2c(cc1O)[C@@]1(C)CCCC(C)(C)[C@@H]1CC2 [Compound 4]
- Inhibitionmax (%) of AR activity (androgen receptor; maximal inhibition at 25 μM): 100 ± 1% (25 μM)
- IC50 (androgen receptor): 12 µM

Compound: C=C1CC[C@@H]2[C@](C)(CCC[C@]2(C)C(=O)O)[C@H]1CC/C(C)=C/CO [Compound 8, isocupressic acid]
- inhibition of AR activity (androgen receptor): 87%
- Inhibitionmax (%) of AR activity (androgen receptor; maximal inhibition at 50 μM): 87 ± 3% (50 μM)
- IC50 (androgen receptor): 22.7 µM

Compound: CC(C)c1cc2c(cc1O)[C@@]1(C)CCCC(C)(C)[C@@H]1CC2=O [Compound 3]
- Inhibitionmax (%) of AR activity (androgen receptor; maximal inhibition at 25 μM): 100 ± 1% (25 μM)
- IC50 (androgen receptor): 2.64 µM

Compound: CC(C)c1cc2c(cc1O)[C@@]1(C)CCCC(C)(C)[C@@H]1C(=O)C2=O [Compound 7]
- Inhibitionmax (%) of AR activity (androgen receptor; maximal inhibition at 25 μM): 100 ± 1% (25 μM)
- IC50 (androgen receptor): 12.9 µM

Compound: CC(O)(CS(=O)(=O)c1ccc(F)cc1)C(=O)Nc1ccc(C#N)c(C(F)(F)F)c1 (centres unmarked) [CASODEX, bicalutamide, reference compound]
- G0-G1 phase cell population (LNCaP cells; 1 μM): 62.1 ± 3.5 %
- G2-M phase cell population (LNCaP cells; 1 μM): 21.8 ± 2.0 %
- S phase cell population (LNCaP cells; 1 μM): 10.1 ± 1.7 %
- Sub-G1 phase cell population (LNCaP cells; 1 μM): 1.0 ± 0.5 %
- G0-G1 phase cell population (LNCaP cells; 10 μM): 61.3 ± 3.4 %
- G2-M phase cell population (LNCaP cells; 10 μM): 22.3 ± 1.7 %
- S phase cell population (LNCaP cells; 10 μM): 10.4 ± 1.5 %
- Sub-G1 phase cell population (LNCaP cells; 10 μM): 1.3 ± 0.8 %
- G0-G1 phase cell population (22Rv1 cells; 22Rv1, 1 μM): 53.5 ± 2.6 %
- G2-M phase cell population (22Rv1 cells; 22Rv1, 1 μM): 25.0 ± 1.6 %
- S phase cell population (22Rv1 cells; 22Rv1, 1 μM): 13.5 ± 2.3 %
- Sub-G1 phase cell population (22Rv1 cells; 22Rv1, 1 μM): 1.5 ± 1.1 %
- G0-G1 phase cell population (22Rv1 cells; 22Rv1, 10 μM): 53.0 ± 3.2 %
- G2-M phase cell population (22Rv1 cells; 22Rv1, 10 μM): 25.4 ± 1.0 %
- S phase cell population (22Rv1 cells; 22Rv1, 10 μM): 12.2 ± 1.8 %
- Sub-G1 phase cell population (22Rv1 cells; 22Rv1, 10 μM): 2.3 ± 1.8 %
- G0-G1 phase cell population (PC-3 cells; PC-3, 1 μM): 51.1 ± 3.6 %
- G2-M phase cell population (PC-3 cells; PC-3, 1 μM): 24.4 ± 2.5 %
- S phase cell population (PC-3 cells; PC-3, 1 μM): 18.5 ± 2.1 %
- Sub-G1 phase cell population (PC-3 cells; PC-3, 1 μM): 2.3 ± 1.5 %
- G0-G1 phase cell population (PC-3 cells; PC-3, 10 μM): 51.0 ± 2.1 %
- G2-M phase cell population (PC-3 cells; PC-3, 10 μM): 25.2 ± 2.1 %
- S phase cell population (PC-3 cells; PC-3, 10 μM): 19.0 ± 1.3 %
- Sub-G1 phase cell population (PC-3 cells; PC-3, 10 μM): 1.8 ± 1.4 %
